What follows are molecules tested against P2X7 receptor (Homo sapiens (Human), UniProt Q99572) (assay: P2X7 FLIPR assay (BzATP-stimulated calcium fluorescence, antagonist IC50)).
Type: cell-based
How it was run: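 Cells expressing P2X7 receptor (human, rat or mouse), plated 24 hours earlier in low-serum medium, loaded with Fluo-4 NW dye (30 min 37° C, 30 min room temperature).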

Sequence of P2X7 receptor (Q99572 whole entry): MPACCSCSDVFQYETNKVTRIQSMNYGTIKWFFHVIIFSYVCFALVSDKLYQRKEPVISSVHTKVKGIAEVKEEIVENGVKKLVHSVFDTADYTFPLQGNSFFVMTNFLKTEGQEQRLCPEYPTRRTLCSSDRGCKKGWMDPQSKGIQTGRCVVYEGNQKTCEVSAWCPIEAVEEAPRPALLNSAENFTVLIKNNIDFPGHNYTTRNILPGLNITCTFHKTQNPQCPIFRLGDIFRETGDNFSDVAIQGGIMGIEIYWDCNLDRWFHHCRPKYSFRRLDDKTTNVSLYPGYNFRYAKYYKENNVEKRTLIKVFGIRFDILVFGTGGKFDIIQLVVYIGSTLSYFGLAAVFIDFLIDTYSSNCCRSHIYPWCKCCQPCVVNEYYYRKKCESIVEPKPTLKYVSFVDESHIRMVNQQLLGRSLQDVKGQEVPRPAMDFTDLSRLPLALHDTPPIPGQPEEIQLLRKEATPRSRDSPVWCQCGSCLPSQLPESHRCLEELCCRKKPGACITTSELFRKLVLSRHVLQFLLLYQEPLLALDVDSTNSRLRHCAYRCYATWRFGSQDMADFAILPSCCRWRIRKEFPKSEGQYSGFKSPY

Molecule | IC50 [nM]
O=C(NCC1(c2ccc(F)nc2)CCC(F)(F)CC1)c1c(F)cccc1Cl [2-chloro-N-[[4,4-difluoro-1-(6-fluoro-3-pyridyl)cyclohexyl]methyl]-6-fluoro-benzamide] | 14
CC(C)(O)c1ccc(C2(CNC(=O)c3ccccc3Cl)CCC(F)(F)CC2)cn1 [2-chloro-N-[[4,4-difluoro-1-[6-(1-hydroxy-1-methyl-ethyl)-3-pyridyl]cyclohexyl]methyl]benzamide] | 380
N#Cc1ccccc1C(=O)NCC1(c2ccc(C(F)(F)F)nc2)CCC(F)(F)CC1 [2-cyano-N-((4,4-difluoro-1-(6-(trifluoromethyl)pyridin-3-yl)cyclohexyl)methyl)benzamide] | 150
O=C(NCC(CC1(C(F)(F)F)CC1)c1ccc(C(F)(F)F)nc1)c1ccccc1F (stereo not drawn) [2-fluoro-N-[3-[1-(trifluoromethyl)cyclopropyl]-2-[6-(trifluoromethyl)-3-pyridyl]propyl]benzamide] | 430
O=C(NCC1(c2ccc(Cl)cc2)CCOCC1)c1cccc(Cl)c1F [3-Chloro-N-[4-(4-chloro-phenyl)-tetrahydro-pyran-4-ylmethyl]-2-fluoro-benzamide] | 890
Cc1c(Br)cccc1C(=O)NCC1(c2ccc(C(F)(F)F)nc2)CCC(F)(F)CC1 [3-bromo-N-((4,4-difluoro-1-(6-(trifluoromethyl)pyridin-3-yl)cyclohexyl)methyl)-2-methylbenzamide] | 0.71
O=C(NCC(CC1CC1)c1ccc(C(F)(F)F)nc1)c1cccc(Cl)c1F (stereo not drawn) [3-chloro-N-(3-cyclopropyl-2-(6-(trifluoromethyl)pyridin-3-yl)propyl)-2-fluorobenzamide] | 660
O=C(NCC1(c2ccc(C(F)(F)F)nc2)CCC(F)(F)CC1)c1cccc(Cl)c1F [3-chloro-N-((4,4-difluoro-1-(6-(trifluoromethyl)pyridin-3-yl)cyclohexyl)methyl)-2-fluorobenzamide] | 3.2
O=C(NCC1(c2ccc(F)nc2)CCC(F)(F)CC1)c1cccc(Cl)c1F [3-chloro-N-((4,4-difluoro-1-(6-fluoropyridin-3-yl)cyclohexyl)methyl)-2-fluorobenzamide] | 11
Cc1c(C#N)cccc1C(=O)NCC1(c2ccc(C(F)(F)F)nc2)CCC(F)(F)CC1 [3-cyano-N-((4,4-difluoro-1-(6-(trifluoromethyl)pyridin-3-yl)cyclohexyl)methyl)-2-methylbenzamide] | 45
O=C(NCC1(c2ccc(Cl)cc2)CCOCC1)c1cc(Br)ccc1Cl [5-Bromo-2-chloro-N-[4-(4-chloro-phenyl)-tetrahydro-pyran-4-ylmethyl]-benzamide] | 130
CC(NC(=O)c1cccc(Cl)c1Cl)C1(c2ccc(Br)nc2)CCC(F)(F)CC1 (stereo not drawn) [N-(1-(1-(6-bromopyridin-3-yl)-4,4-difluorocyclohexyl)ethyl)-2,3-dichlorobenzamide] | 43
CS(=O)(=O)c1ccccc1C(=O)NCC1(c2ccc(C(F)(F)F)nc2)CCC(F)(F)CC1 [N-((4,4-difluoro-1-(6-(trifluoromethyl)pyridin-3-yl)cyclohexyl)methyl)-2-(methylsulfonyl)benzamide] | 480
Cc1ccc(C(F)(F)F)cc1C(=O)NCC1(c2ccc(C(F)(F)F)nc2)CCC(F)(F)CC1 [N-((4,4-difluoro-1-(6-(trifluoromethyl)pyridin-3-yl)cyclohexyl)methyl)-2-methyl-5-(trifluoromethyl)benzamide] | 39
Cc1ccccc1C(=O)NCC1(c2ccc(Cl)cc2)CCN(C)CC1 [N-[4-(4-Chloro-phenyl)-1-methyl-piperidin-4-ylmethyl]-2-methyl-benzamide] | 60
(−)2,3-dichloro-N-[3-cyclopropyl-2]benzamide | 1.9

Further lines, results first:

IC50 [nM] | Molecule
2.6 | Cc1ccccc1C(=O)NCC1(c2ccc(C(F)(F)F)nc2)CCC(F)(F)CC1 [N-((4,4-difluoro-1-(6-(trifluoromethyl)pyridin-3-yl)cyclohexyl)methyl)-2-methylbenzamide]
4 | Cc1c(F)cccc1C(=O)NCC1(c2ccc(C(F)(F)F)nc2)CCC(F)(F)CC1 [N-((4,4-difluoro-1-(6-(trifluoromethyl)pyridin-3-yl)cyclohexyl)methyl)-3-fluoro-2-methylbenzamide]
1.6 | COc1cccc(C(=O)NCC2(c3ccc(C(F)(F)F)nc3)CCC(F)(F)CC2)c1C [N-((4,4-difluoro-1-(6-(trifluoromethyl)pyridin-3-yl)cyclohexyl)methyl)-3-methoxy-2-methylbenzamide]
9.1 | Cc1ccc(F)cc1C(=O)NCC1(c2ccc(C(F)(F)F)nc2)CCC(F)(F)CC1 [N-((4,4-difluoro-1-(6-(trifluoromethyl)pyridin-3-yl)cyclohexyl)methyl)-5-fluoro-2-methylbenzamide]
290 | O=C(NCC1(c2ccc(F)nc2)CCC(F)(F)CC1)c1cccc(F)c1F [N-((4,4-difluoro-1-(6-fluoropyridin-3-yl)cyclohexyl)methyl)-2,3-difluorobenzamide]
1500 | O=C(NCC1(c2ccc(F)nc2)CCC(F)(F)CC1)c1cc(F)ccc1F [N-((4,4-difluoro-1-(6-fluoropyridin-3-yl)cyclohexyl)methyl)-2,5-difluorobenzamide]
78 | Cc1cccc(C(=O)NCC2(c3ccc(F)nc3)CCC(F)(F)CC2)c1F [N-((4,4-difluoro-1-(6-fluoropyridin-3-yl)cyclohexyl)methyl)-2-fluoro-3-methylbenzamide]
65 | COc1ccc(F)c(C(=O)NCC2(c3ccc(F)nc3)CCC(F)(F)CC2)c1 [N-((4,4-difluoro-1-(6-fluoropyridin-3-yl)cyclohexyl)methyl)-2-fluoro-5-methoxybenzamide]
190 | O=C(NCC1(c2ccc(F)nc2)CCC(F)(F)CC1)c1ccccc1F [N-((4,4-difluoro-1-(6-fluoropyridin-3-yl)cyclohexyl)methyl)-] [N-((4,4-difluoro-1-(6-fluoropyridin-3-yl)cyclohexyl)methyl)-2-fluorobenzamide]
600 | COc1ccc(C2(CNC(=O)c3cccc(C)c3C)CCCC2)cc1 [N-[1-(4-Methoxy-phenyl)-cyclopentylmethyl]-2,3-dimethyl-benzamide]
1400 | COc1ccc(C2(CNC(=O)c3ccccc3C)CCCC2)cc1 [N-[1-(4-Methoxy-phenyl)-cyclopentylmethyl]-2-methyl-benzamide]
1700 | O=C(NCC(CC1(C(F)(F)F)CC1)c1ccc(C2CC2)nc1)c1ccccc1F (stereo not drawn) [N-[2-(6-cyclopropyl-3-pyridyl)-3-[1-(trifluoromethyl)cyclopropyl]propyl]-2-fluoro-benzamide]
14 | O=C(NCC1(c2ccc(F)nc2)CCC(F)(F)CC1)c1ccccc1F [N-[4,4-Difluoro-1-(6-fluoro-pyridin-3-yl)-cyclohexylmethyl]-] [N-[4,4-Difluoro-1-(6-fluoro-pyridin-3-yl)-cyclohexylmethyl]-2-fluoro-benzamide]
3600 | O=C(NCC1(c2ccc(Cl)cc2)CCOCC1)c1cc(F)cc(F)c1F [N-[4-(4-Chloro-phenyl)-tetrahydro-pyran-4-ylmethyl]-2,3,5-trifluoro-benzamide]
170 | Cc1cccc(C(=O)NCC2(c3ccc(Cl)cc3)CCOCC2)c1C [N-[4-(4-Chloro-phenyl)-tetrahydro-pyran-4-ylmethyl]-2,3-dimethyl-benzamide]
3000 | O=C(NCC1(c2ccc(Cl)cc2)CCOCC1)c1cc(F)ccc1F [N-[4-(4-Chloro-phenyl)-tetrahydro-pyran-4-ylmethyl]-2,5-difluoro-benzamide]
4300 | O=C(NCC1(c2ccc(Cl)cc2)CCOCC1)c1cccc(C(F)(F)F)c1F [N-[4-(4-Chloro-phenyl)-tetrahydro-pyran-4-ylmethyl]-2-fluoro-3-trifluoromethyl-benzamide]
620 | COc1ccccc1C(=O)NCC1(c2ccc(Cl)cc2)CCOCC1 [N-[4-(4-Chloro-phenyl)-tetrahydro-pyran-4-ylmethyl]-2-methoxy-benzamide]
2100 | Cc1ccccc1C(=O)NCC1(c2ccc(Cl)cc2)CCOCC1 [N-[4-(4-Chloro-phenyl)-tetrahydro-pyran-4-ylmethyl]-2-methyl-benzamide]
1200 | O=C(NCC1(c2ccc(Cl)cc2)CCOCC1)c1ccccc1C(F)(F)F [N-[4-(4-Chloro-phenyl)-tetrahydro-pyran-4-ylmethyl]-2-trifluoromethyl-benzamide]

Reference: patent US9102591B2, “Benzamides” (H. Lundbeck A/S, priority 2012, dated 2015)
